What was measured:
[1] = target: T1, Nox2 (Homo sapiens, UniProt P04839); assay: O2- production by lysates of COS cells transfected with Nox2 oxidase, LiDS-stimulated (cytochrome c); format: cell-based; details: 0.1 nM to 10,000 nM
T1 construct: expressed in transfected cells; host or cells: COS22 / COS cells, transient transfection; cell lysates
T1 sequence (P04839 2-570 limits assumed): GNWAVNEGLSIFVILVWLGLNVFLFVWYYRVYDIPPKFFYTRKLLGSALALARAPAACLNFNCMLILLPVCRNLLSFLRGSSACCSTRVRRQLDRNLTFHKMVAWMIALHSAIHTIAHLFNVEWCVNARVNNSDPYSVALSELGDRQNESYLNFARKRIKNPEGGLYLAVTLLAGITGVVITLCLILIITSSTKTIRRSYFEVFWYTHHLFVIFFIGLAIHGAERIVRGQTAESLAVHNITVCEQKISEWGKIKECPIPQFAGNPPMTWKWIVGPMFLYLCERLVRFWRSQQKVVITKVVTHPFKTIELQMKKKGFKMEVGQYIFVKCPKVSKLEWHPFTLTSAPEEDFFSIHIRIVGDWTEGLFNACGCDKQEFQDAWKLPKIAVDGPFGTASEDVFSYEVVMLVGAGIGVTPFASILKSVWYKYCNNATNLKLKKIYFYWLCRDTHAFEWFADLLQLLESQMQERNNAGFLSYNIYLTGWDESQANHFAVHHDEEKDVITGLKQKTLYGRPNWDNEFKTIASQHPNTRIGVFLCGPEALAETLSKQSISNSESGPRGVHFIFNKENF
T1 sequence (P13498 1-195 partner): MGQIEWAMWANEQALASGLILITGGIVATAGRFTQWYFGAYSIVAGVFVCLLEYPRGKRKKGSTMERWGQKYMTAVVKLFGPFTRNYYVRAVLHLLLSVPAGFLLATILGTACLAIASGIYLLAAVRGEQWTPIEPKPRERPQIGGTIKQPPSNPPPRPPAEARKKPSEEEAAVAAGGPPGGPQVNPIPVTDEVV
Experimental: To test whether the inhibitory effect of NoxA1ds is specific to Nox1, the effect of NoxA1ds was tested on cells expressing Nox2, Nox4, and Nox5 as well as on purified xanthine oxidase enzyme. To test the effect on Nox2, production of O2^− was measured by the reduction of cytochrome c by cell lysates from COS cells transiently transfected with the Nox2 oxidase, stimulated with LiDS, and the treated with increasing concentrations of NoxA1ds (from 0.1 nM to 10,000 nM). Similarly, production of H2O2 was measured by Amplex red fluorescence by COS cells transiently transfected with the Nox4 oxidase and treated with increasing concentrations of NoxA1ds (from 100 nM to 10,000 nM). Production of O2^− was also measured by the reduction of cytochrome c by cell lysates from HEK293 cells stably transfected with the Nox5 oxidase stimulated with Ca^2+, and treated with increasing concentrations of NoxA1ds (from 0.1 nM to 10,000 nM). Finally, production of O2^− was measured by Electron Paramagnetic Resonance from pure xanthine oxidase enzyme preparations, stimulated with hypoxanthine and treated with increasing concentrations of NoxA1ds (from 0.1 nM to 10,000 nM).

[2] = tested on: rat aortic smooth muscle cells; assay: Stretch-induced migration of rat aortic smooth muscle cells (wound closure); format: cell-based; details: 10 μM added every four hours; cyclic stretch 24 hrs
Experimental: The effect on NoxA1ds on stretch-induced migration of rat aortic smooth muscle cells was studied. Cell monolayer cultures with an introduced gap (“wound”) were subjected to 24 hrs of cyclic stretch (10%, 1 Hz) with 10 μM NoxA1ds or SCRMB control being added every four hours. Cell migration may be assessed as the distance the wound has closed, where greater […] corresponds to greater migration. Cell migration increased as a result of cyclic stretch.

[3] = tested on: Nox1-YFP; assay: Image cross correlation spectroscopy (ICCS) of R-NoxA1ds and Nox1-YFP; format: binding; details: unlabelled competitor
Experimental: An ELISA of Nox1:NoxA1ds interaction was performed as follows. Neutravidin coated plates were incubated with biotin-tagged NoxA1ds (Biotin-NoxA1ds) or biotin-tagged SCRMB (Biotin-SCRMB) before addition of cell membranes prepared from cells transfected with Nox1 (Nox1 membrane) or transfected with an empty vector (COS22 membrane). Bound Nox1 was detected through a FITC conjugated secondary antibody (αRabbit Ab Sigma F9887) bound to the Nox1 primary antibody (rabbit αNox1 Ab (SC-25545, Santa Cruz Biotechnology)). FITC fluorescence was expressed as binding as % COS22 membranes on each experimental day. […] To further confirm the association, image cross correlation spectroscopy (ICCS) was used to determine patterns in signal fluctuation between rhodamine-labeled NoxA1ds (R-NoxA1ds) and Nox1-YFP though a sequence of 100 images 0.05 s apart. Correlation and cross-correlation was calculated using an ImageJ plugin.

[4] = tested on: rat aortic smooth muscle cells; assay: Calponin and osteopontin expression in stretched rat aortic smooth muscle cells (Western blot); format: cell-based; details: 10 μM added every four hours; cyclic stretch 24 hrs
Experimental: The effect of Nox1 inhibition on the expression of certain protein markers of rat aortic smooth muscle cell contractile vs. synthetic phenotypes was evaluated. Cells were subjected to 24 hrs of cyclic stretch (10%, 1 Hz) with 10 μM NoxA1ds or SCRMB control being added every four hours. […] Calponin expression during stretch was rescued by the addition of 10 μM NoxA1ds, yet was unaffected by the addition of 10 μM scrambled peptide (SCRMB). A representative Western blot is shown below the graph (FIG. 9B). Osteopontin (OPN, a marker of the […] phenotype), expression increased after 24 hrs of stretch.

## H-EPVDALGKAKV-NH2 [NoxA1ds, [NH3^+]-EPVDALGKAKV-[CONH2]]
[1]
  Inhibitory effect on Nox2 O2- production: did not exhibit a significant inhibitory effect
[2]
  Stretch-induced cell migration (wound closure): reduced migration to levels observed in non-stretched cells
[3]
  Effect of competition with R-NoxA1ds on fractional binding: significantly reduced the fractional binding
[4]
  Calponin expression during stretch: rescued
  Osteopontin (OPN) expression during stretch: returned to levels observed in the absence of stretch
